From US20140256771A1, “COMPOUNDS THAT MODULATE INTRACELLULAR CALCIUM” (CalciMedica, Inc., priority 2011, published 2014)
Where two headings read alike, the source gives them in different places.

Experiments:
Orai1/STIM1 = target: T1, Orai1/STIM1 (Homo sapiens, UniProt Q96D31); experiment: Fluorescence-based assay of store-operated calcium entry in Orai1/STIM1 stable cells; type: cell-based; design: key to Orai1/STIM1 (IC50, μmol): A < 0.6 μmol; 0.6 μmol ≦ B ≦ 1.2 μmol; C > 1.2 μmol; — = no fit; conditions: HEK-293 cells stably expressing human STIM1 and Orai1, 50% inhibition of Peak-Basal fluo-4 signal; for IC50: read-out: Orai1/STIM1 (IC50, μmol)
T1 construct: expressed in transfected cells; host or cells: HEK-293
Method: A. Fluorescence-based Assay of Store-Operated Calcium Entry in Orai1/STIM1 Stable Cells.
Cells stably expressing recombinant human STIM1 and Orai1 are generated by transfecting a human Orai1 expression plasmid (pcDNA3.1-Orai1-cmyc) into HEK-293 cells stably overexpressing human STIM1 (Roos et al. 2005 JCB 169(3): 435-445). Colonies of cells stably expressing both STIM1 and Orai1 proteins are selected and then subcloned by limiting dilution. Cells were cultured at 37° C./6% CO2 in complete medium with 10% FBS and appropriate selection markers.
The day prior to performing the assay Orai1/STIM1 stable cells are plated in 50 μL of complete medium at 90-95% confluence in a 384 well plate. Cells are grown at 37° C./6% CO2 overnight. On the day of the assay, 1.5 μM fluo-4-AM (Invitrogen) in complete medium is added to the cells, which are then incubated for 1 hour at RT. Cells are washed once in Ca^2+-free HBSS (Hank's buffered saline solution) and 35 μl of Ca^2+-free HBSS is added to each well. Test compounds are added to wells in a 10 μL Ca^2+-free HBSS solution, prepared at 4.5× the desired final concentration, and incubated for 30 minutes at RT. The initial baseline fluorescence signal is then measured with a FLIPR^384 (Molecular Devices) plate reader. Calcium entry is initiated by adding 5 μl of 10× CaCl2 (10 mM) in HBSS, and changes in cellular fluorescence are measured with the FLIPR^384 plate reader. In each well, the magnitude of the fluorescence signal as a result of calcium entry into the cell is determined by calculating the difference between the peak fluorescence signal measured after calcium addition and the initial baseline fluorescence signal (designated Peak-Basal). IC50 values are typically calculated as the concentration that inhibited 50% of the Peak-Basal signal (Table A).

RBL-2H3 cells = experiment: Fluorescence-based assay of store-operated calcium entry in RBL-2H3 cells; type: cell-based, rat; conditions: Rattus norvegicus, RBL-2H3, thapsigargin store depletion, 50% inhibition of Upslope, read-out: RBL-2H3 (IC50, μmol)
Method: B. Fluorescence-based Assay of Store-Operated Calcium Entry in RBL-2H3Cells.
RBL-2H3 cells are obtained from ATCC and maintained in complete medium with 10% FBS at 37° C./6% CO2.
The day prior to performing the assay, RBL-2H3 cells are plated in 50 μL of complete medium in a 384 well plate. Cells are grown at 37° C./6% CO2 overnight and grow to 50-60% confluence by the next day. On the assay day, 1.5 μM Fluo-4-AM dye (Invitrogen) in complete medium is added and incubated for 1 hour at RT. Cells are washed twice in Ca^2+-free HBSS buffer and 35 μL Ca^2+-free HBSS buffer is added to each well. 10 μL of a test compound prepared in a Ca^2+-free HBSS solution at 4.5× of the desired concentration is added to a well and incubated for 5 minutes at RT. 10 μL of thapsigargin prepared in a Ca^2+-free HBSS solution at 5.5× of the desired concentration (5.5 uM) is added to each well and incubated for an additional 25 minutes. The initial baseline fluorescence signal is measured with a FLIPR^384 (Molecular Devices) plate reader. 5 μL of 12× calcium in HBSS (12 mM) is added and changes in cellular fluorescence are measured with the FLIPR^384 plate reader. In each well, the change in the fluorescent signal as a function of time due to calcium entry into the cell is determined by calculating the difference between the fluorescent signal measured 7 seconds after calcium addition and the initial baseline fluorescence signal at time zero (t=0). This parameter is designated Upslope. The IC50 value is calculated as the concentration at which 50% of the Upslope is inhibited.

T1 sequence (Q96D31 whole entry): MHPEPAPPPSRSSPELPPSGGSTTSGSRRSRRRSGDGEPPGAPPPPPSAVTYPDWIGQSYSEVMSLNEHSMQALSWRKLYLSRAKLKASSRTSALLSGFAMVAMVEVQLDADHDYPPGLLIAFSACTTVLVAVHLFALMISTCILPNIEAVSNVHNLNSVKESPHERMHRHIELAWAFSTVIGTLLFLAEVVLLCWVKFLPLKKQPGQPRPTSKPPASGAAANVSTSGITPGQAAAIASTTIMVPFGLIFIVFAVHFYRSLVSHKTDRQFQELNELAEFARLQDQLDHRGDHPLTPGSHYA

Structure (SMILES)	IC50 (Orai1/STIM1; Table iv) [nM]	IC50 (RBL-2H3 cells; Table iv) [nM]	IC50 (Orai1/STIM1; Table iii) [nM]	IC50 (RBL-2H3 cells; Table iii) [nM]	Orai1/STIM1 (IC50, μmol) (Orai1/STIM1; Table iii)
Cc1nnsc1C(=O)Nc1ccc(-n2nc(C(F)(F)F)cc2C)cc1	600 to 1200	< 600			
Cc1ccccc1C(=O)Nc1ccc(-c2cn(C(F)F)nc2C)c(F)c1	< 600	600 to 1200			
O=C(Nc1ccc(-n2nc(C(F)(F)F)cc2C(F)(F)F)cc1)c1c(F)cncc1F	> 1200	< 600			
Cc1cc(C(F)(F)F)nn1-c1ccc(NC(=O)c2c(F)cc(F)cc2F)cc1	600 to 1200	< 600			
CCn1nc(C(F)(F)F)cc1-c1ccc(NC(=O)c2ccccc2F)cc1	< 600	< 600			
Cn1nc(C(F)(F)F)cc1-c1ccc(NCc2c(Cl)cnn2C)cc1			600 to 1200	< 600	
Cc1cc(F)ccc1C(=O)Nc1ccc(-c2cc(C(F)(F)F)nn2C)c(F)c1	< 600	< 600			
Cn1nc(C(F)(F)F)cc1-c1ccc(NC(=O)c2ccncc2F)cc1F	< 600	< 600			
Cn1nc(C(F)(F)F)cc1-c1ccc(NC(=O)c2c(F)ccc(F)c2F)cc1F	600 to 1200	< 600			
CCn1nc(C(F)(F)F)cc1-c1ccc(NC(=O)c2c(F)cc(F)cc2F)cc1F	600 to 1200	< 600			
Cn1nc(C(F)(F)F)cc1-c1ccc(NC(=O)c2c(F)cccc2F)cc1	< 600	< 600			
Cc1nc(C(F)(F)F)cn1-c1ccc(NC(=O)c2c(F)ccc(F)c2F)cc1F	> 1200	< 600			
Cn1nc(C(F)(F)F)cc1-c1c(F)cc(NCc2ccc(F)cc2F)cc1F				< 600	—
Cc1nc(C(F)(F)F)cn1-c1ccc(NCc2c(F)cncc2F)cc1F			< 600	< 600	
CCn1nc(C(F)(F)F)cc1-c1ccc(NCc2ccccc2F)cc1			< 600	< 600	
Fc1cncc(F)c1CNc1ccc(-n2nc(C(F)(F)F)cc2C(F)(F)F)cc1			600 to 1200	< 600	
Cn1nc(C(F)(F)F)cc1-c1c(F)cc(NC(=O)c2ccc(F)cc2F)cc1F	< 600	< 600			
Cc1nn(C(F)F)cc1-c1ccc(NC(=O)c2ccccc2F)cc1	600 to 1200	600 to 1200			
Cc1cc2c(cc1-c1ccc(NCc3c(F)cncc3F)cc1)OC(F)(F)O2			< 600	< 600	
Cc1cc2c(cc1-c1ccc(NC(=O)c3c(F)cccc3F)cc1F)OC(F)(F)O2	> 1200	< 600			
Cn1nc(C(F)(F)F)cc1-c1ccc(NC(=O)c2c(F)cncc2F)c(F)c1	< 600	< 600			
Cn1nc(C(F)(F)F)cc1-c1c(F)cc(NC(=O)c2c(F)cncc2F)cc1F	600 to 1200	< 600			
Cc1sc(C(F)(F)F)nc1-c1ccc(NC(=O)c2c(F)cc(F)cc2F)cc1	< 600	< 600			
Cc1nc(C(F)(F)F)cn1-c1ccc(NC(=O)c2ccccc2F)cc1F	> 1200	< 600			
Cc1cccc(F)c1C(=O)Nc1ccc(-c2nc(C(F)(F)F)sc2C)cc1	< 600	< 600			
Cc1cc2c(cc1-c1ccc(NC(=O)c3scnc3C)cc1)OC(F)(F)O2	600 to 1200	< 600			
Cc1nnsc1CNc1ccc(-c2cc(C(F)(F)F)nn2C)c(F)c1			> 1200	600 to 1200	
Cc1cc(C(F)(F)F)nn1-c1ccc(NCc2ccc(F)cc2F)cc1			600 to 1200	< 600	
Cn1nc(C(F)(F)F)cc1-c1ccc(NC(=O)c2ccccc2F)cc1	< 600	< 600			
O=C(Nc1ccc(-n2nc(C(F)(F)F)cc2C(F)(F)F)cc1)c1ccccc1F		< 600			
